How the values were obtained:
[1] = target: FGFR1 (fibroblast growth factor receptor 1) (Homo sapiens, UniProt P11362); experiment: kinase assay IC50 (called cell-based kinase assay in the Figure […] legend); also reduced phospho-FGFR1 in HCC827-osi cells
AXL = target: T1, AXL (Homo sapiens, UniProt P30530); experiment: kinase assay IC50 (called cell-based kinase assay in the Figure […] legend); also reduced phospho-AXL in HCC827-osi cells
T1 sequence (P30530 26-894): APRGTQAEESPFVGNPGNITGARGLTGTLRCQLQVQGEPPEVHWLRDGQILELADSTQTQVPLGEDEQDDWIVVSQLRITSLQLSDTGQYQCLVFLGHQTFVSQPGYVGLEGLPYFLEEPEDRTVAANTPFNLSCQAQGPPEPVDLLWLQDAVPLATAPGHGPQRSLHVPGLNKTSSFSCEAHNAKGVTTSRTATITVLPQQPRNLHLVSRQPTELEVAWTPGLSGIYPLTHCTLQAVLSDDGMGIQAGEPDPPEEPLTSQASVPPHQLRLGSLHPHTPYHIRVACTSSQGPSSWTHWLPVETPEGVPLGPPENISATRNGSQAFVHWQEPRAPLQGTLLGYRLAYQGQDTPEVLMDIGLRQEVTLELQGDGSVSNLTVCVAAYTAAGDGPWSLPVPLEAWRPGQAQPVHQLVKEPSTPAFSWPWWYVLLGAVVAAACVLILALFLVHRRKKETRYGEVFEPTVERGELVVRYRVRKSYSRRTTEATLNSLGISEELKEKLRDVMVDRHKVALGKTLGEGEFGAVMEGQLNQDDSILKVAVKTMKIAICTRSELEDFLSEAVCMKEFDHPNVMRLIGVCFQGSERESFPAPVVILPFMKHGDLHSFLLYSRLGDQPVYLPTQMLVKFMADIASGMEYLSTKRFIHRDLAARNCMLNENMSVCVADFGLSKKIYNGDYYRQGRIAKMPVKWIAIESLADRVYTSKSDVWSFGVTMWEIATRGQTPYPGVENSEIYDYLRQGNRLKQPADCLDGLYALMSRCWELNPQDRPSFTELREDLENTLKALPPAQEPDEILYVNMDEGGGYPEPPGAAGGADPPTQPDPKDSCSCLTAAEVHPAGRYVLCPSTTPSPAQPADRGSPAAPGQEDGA

Sequence of FGFR1 (fibroblast growth factor receptor 1) (P11362 22-822): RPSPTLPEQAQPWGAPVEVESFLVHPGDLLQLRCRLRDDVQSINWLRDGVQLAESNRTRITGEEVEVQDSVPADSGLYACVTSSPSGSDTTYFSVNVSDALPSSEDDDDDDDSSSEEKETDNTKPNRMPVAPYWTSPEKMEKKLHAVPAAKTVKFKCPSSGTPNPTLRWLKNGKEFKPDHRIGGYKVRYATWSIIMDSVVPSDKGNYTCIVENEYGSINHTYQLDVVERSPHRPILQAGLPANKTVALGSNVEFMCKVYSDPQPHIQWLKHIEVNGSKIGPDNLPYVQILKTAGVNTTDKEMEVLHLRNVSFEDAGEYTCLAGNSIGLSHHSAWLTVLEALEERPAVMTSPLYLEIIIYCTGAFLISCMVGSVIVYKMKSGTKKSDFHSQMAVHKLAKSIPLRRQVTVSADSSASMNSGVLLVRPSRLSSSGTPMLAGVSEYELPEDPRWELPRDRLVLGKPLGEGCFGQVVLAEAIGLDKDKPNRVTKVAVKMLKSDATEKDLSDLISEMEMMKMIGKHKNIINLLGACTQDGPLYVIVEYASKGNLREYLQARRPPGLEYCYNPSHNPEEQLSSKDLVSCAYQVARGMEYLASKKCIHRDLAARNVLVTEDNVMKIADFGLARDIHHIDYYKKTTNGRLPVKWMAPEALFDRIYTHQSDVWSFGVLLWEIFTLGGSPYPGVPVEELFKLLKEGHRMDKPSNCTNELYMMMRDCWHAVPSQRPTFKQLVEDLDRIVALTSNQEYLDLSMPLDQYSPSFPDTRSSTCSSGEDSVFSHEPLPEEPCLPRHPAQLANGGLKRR

Q: How did the IC50 [1] turn out when CN1C(=O)N(c2cc(NC(=O)c3cccc(C(F)(F)F)c3)cnc2Cl)Cc2cnc(Nc3ccccc3)nc21 [AX-0085] was run?
A: 2.2 nM

Q: What about the IC50 (AXL) of the same molecule?
A: 4.4 nM

Source: paper PMC12838157, “A Multikinase Inhibitor AX-0085 Blocks FGFR1 Activation to Overcomes Osimertinib Resistance in Non-Small Cell Lung Cancer” (Biomedicines, 2025)
